The values below come from patent publication US12435046B2, “Alkynyl quinazoline compounds” (Black Diamond Therapeutics, Inc., priority 2019, dated 2025).

One may read the IC50 as the point on the concentration scale where inhibition reaches its midpoint.

SMILES strings stand for the structures.

What all share (assay type): cell-based
Details in all cases: Table A; BaF3 cells, 3 days

One test has as its target T1, HER2 S310F (Homo sapiens, UniProt P04626, S310F).
T1 construct: expressed in transfected cells; host or cells: BaF3 (murine pro-B) cells
The test can be described thus: BaF3 cell proliferation assay (CellTiterGlo), HER2 S310F. (Cellular ATP, detected with luciferase, serves as a proxy for viable cell number.)

In a further test the target is T2, EGFR wt (Homo sapiens, UniProt P00533).
T2 construct: expressed in transfected cells; host or cells: BaF3 (murine pro-B) cells, retroviral transduction with pMXs-IRES-Blasticidin
The test can be described thus: BaF3 cell proliferation assay (CellTiterGlo), EGFR wt. The essentials:
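BaF3 cells engineered by retroviral transduction to express EGFR and selected for blasticidin resistance and IL-3 independent growth were suspended at 1.3E5 c/ml in RPMI with 10% heat inactivated FBS, 2% L-glutamine and 1% Pen/Strep. They were plated in triplicate in 96 well plates and exposed to vehicle or varying drug concentrations for 3 days. Viability was quantified by CellTiterGlo ATP luminescence, normalized to vehicle, and curves fitted in PRISM.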

Another test has as its target T3, EGFR V3 (Homo sapiens, UniProt P00533, DELINS30-297G).
T3 construct: expressed in transfected cells; host or cells: BaF3 (murine pro-B) cells, retroviral transduction with pMXs-IRES-Blasticidin
The test can be described thus: BaF3 cell proliferation assay (CellTiterGlo), EGFR V3. The essentials: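 BaF3 cells made IL-3-independent by retroviral expression of each EGFR or HER2 mutant were treated in triplicate with compound for 72 h. Viability was read by CellTiterGlo ATP luminescence and normalised to vehicle, and EC50 was fitted from dose-response curves.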

In another test the target is T4, HER2 YVMA (Homo sapiens, UniProt P04626, INS775YVMA).
T4 construct: expressed in transfected cells; host or cells: BaF3 (murine pro-B) cells
The test can be described thus: BaF3 cell proliferation assay (CellTiterGlo), HER2 YVMA.

T2 sequence (P00533 25-1210): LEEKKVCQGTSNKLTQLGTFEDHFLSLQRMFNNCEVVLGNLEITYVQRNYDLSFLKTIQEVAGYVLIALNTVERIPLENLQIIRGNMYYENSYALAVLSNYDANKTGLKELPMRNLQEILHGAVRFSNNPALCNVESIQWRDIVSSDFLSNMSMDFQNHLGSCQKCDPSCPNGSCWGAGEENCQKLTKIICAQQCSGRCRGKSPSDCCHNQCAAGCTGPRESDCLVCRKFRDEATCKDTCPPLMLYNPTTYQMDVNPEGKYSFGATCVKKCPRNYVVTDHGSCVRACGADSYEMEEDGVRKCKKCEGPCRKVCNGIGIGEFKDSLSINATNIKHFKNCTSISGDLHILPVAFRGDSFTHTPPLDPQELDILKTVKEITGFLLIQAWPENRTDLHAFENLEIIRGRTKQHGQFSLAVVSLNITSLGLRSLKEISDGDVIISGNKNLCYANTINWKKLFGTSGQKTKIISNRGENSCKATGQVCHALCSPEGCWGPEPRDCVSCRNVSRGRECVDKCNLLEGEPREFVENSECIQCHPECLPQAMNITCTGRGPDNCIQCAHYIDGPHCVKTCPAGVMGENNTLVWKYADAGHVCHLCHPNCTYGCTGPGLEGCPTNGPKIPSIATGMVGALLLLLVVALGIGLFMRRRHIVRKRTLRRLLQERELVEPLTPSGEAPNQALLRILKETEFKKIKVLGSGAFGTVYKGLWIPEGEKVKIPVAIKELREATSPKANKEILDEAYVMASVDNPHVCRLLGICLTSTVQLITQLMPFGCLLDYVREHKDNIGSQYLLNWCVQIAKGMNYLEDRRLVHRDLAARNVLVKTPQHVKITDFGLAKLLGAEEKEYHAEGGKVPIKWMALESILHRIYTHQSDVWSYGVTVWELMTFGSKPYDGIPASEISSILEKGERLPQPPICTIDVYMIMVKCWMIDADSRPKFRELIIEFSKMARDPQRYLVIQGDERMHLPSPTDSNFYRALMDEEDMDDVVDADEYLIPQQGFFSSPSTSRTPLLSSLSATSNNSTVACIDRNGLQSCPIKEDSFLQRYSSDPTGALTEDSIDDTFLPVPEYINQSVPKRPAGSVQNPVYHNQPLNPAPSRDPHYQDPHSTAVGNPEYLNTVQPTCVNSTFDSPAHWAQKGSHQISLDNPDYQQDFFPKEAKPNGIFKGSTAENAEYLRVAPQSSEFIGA
T4 sequence (P04626 with tags, fused parts or gaps INS775YVMA): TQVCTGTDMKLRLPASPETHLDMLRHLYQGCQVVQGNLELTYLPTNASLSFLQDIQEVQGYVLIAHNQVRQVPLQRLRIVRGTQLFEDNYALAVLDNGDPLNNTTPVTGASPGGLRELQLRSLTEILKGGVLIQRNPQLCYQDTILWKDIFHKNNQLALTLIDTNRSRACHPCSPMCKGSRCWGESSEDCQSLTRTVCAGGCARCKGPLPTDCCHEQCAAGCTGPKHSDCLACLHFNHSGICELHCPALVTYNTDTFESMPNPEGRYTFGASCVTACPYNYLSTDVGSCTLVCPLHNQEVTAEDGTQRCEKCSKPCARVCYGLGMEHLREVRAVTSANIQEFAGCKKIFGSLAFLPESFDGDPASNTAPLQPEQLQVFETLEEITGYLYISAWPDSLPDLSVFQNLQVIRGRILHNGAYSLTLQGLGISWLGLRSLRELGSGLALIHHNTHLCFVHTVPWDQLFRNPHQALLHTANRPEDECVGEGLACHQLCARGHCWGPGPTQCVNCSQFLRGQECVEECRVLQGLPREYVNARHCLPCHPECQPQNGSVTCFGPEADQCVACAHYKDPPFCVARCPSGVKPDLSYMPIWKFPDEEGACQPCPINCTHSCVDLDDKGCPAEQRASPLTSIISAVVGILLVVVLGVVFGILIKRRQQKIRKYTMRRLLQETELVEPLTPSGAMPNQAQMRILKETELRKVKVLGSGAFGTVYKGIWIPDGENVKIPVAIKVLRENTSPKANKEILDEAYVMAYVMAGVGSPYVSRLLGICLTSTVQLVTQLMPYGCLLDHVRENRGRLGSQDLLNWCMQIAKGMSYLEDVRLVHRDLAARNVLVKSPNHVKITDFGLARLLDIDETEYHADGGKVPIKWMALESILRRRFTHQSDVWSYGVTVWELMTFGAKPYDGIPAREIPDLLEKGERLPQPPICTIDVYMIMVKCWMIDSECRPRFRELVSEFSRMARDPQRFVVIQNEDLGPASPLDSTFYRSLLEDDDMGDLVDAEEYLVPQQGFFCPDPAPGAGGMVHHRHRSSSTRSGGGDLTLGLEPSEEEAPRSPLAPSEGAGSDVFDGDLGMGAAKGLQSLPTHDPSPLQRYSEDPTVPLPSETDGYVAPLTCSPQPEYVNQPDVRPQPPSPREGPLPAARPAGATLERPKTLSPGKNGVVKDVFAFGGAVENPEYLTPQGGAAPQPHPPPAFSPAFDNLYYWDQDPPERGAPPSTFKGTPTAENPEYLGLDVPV
T1 sequence (P04626 23-1255 S310F): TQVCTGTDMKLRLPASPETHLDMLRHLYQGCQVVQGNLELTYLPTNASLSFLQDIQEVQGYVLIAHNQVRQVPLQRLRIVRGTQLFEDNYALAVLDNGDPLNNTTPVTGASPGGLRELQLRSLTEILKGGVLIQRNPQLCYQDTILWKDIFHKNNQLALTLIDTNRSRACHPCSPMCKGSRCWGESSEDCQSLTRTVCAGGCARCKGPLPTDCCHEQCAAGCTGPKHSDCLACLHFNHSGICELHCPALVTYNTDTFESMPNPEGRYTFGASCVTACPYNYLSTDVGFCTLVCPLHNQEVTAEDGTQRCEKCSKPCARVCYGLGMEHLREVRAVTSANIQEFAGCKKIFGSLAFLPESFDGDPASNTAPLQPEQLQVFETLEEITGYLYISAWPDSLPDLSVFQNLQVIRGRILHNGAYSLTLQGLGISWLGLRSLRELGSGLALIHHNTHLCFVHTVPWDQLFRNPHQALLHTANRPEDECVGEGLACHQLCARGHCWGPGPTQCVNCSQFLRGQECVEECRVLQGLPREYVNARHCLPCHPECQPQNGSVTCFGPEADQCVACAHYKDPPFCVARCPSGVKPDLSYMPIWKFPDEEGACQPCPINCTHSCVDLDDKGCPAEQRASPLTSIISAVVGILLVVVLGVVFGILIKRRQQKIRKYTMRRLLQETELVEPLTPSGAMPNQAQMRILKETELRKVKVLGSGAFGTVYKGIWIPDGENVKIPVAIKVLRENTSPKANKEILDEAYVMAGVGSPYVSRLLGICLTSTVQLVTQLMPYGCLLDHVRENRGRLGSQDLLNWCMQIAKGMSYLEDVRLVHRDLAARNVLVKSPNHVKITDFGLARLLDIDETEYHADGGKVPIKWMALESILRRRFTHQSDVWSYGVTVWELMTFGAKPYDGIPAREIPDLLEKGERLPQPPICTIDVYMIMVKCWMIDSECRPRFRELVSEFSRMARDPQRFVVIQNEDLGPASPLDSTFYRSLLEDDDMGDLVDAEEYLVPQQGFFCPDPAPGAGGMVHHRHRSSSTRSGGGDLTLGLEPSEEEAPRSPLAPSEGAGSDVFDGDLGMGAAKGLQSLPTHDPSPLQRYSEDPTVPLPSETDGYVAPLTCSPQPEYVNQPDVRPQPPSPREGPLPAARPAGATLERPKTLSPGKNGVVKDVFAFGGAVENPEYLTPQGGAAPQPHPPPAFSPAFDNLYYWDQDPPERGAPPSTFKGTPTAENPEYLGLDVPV
T3 sequence (P00533 with tags, fused parts or gaps DELINS30-297G): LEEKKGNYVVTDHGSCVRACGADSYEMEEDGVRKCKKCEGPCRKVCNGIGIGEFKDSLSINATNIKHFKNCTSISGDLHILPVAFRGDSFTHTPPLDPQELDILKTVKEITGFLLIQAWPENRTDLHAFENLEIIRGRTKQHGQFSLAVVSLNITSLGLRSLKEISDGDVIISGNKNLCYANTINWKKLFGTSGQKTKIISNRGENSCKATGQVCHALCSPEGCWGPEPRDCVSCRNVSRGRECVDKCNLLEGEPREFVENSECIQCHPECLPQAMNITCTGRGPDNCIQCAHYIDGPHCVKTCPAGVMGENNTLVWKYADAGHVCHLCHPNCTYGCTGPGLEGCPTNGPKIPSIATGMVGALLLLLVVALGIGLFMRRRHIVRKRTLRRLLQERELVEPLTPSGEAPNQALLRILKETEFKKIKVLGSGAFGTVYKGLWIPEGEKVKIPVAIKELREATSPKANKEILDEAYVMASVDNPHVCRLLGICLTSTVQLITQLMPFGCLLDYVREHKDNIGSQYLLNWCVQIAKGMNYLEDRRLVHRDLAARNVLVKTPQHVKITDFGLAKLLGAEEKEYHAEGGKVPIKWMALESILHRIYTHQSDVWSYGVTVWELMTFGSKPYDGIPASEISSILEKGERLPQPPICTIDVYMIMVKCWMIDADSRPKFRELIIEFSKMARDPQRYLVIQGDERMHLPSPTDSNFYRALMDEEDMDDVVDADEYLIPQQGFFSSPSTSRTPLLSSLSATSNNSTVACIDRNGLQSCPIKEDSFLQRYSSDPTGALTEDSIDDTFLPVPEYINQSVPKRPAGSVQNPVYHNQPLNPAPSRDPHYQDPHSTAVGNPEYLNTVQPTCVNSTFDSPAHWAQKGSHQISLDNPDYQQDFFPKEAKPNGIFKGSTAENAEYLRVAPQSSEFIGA

`C=CC(=O)Nc1cc2c(Nc3cccc(Cl)c3F)ncnc2cc1C#C[C@@]1(C)CCN(C2COC2)C1` [Compound 59, (R)—N-(4-((3-chloro-2-fluorophenyl)amino)-7-((3-methyl-1-(oxetan-3-yl)pyrrolidin-3-yl)ethynyl)quinazolin-6-yl)acrylamide]: the IC50 on HER2 S310F was 100 to 500 nM; against EGFR wt, 100 to 500 nM; at EGFR V3, ≤ 50 nM; against HER2 YVMA it was > 500 nM.

In the case of `C=CC(=O)Nc1cc2c(Nc3cccc(Cl)c3F)ncnc2cc1C#CC1(F)CCN(C)C1` (centres unmarked) [Compound 60, N-(4-((3-chloro-2-fluorophenyl)amino)-7-((3-fluoro-1-methylpyrrolidin-3-yl)ethynyl)quinazolin-6-yl)acrylamide], the IC50 was 50 to 100 nM against HER2 S310F, 100 to 500 nM at EGFR wt, ≤ 50 nM on EGFR V3 and 100 to 500 nM against HER2 YVMA.

`C=CC(=O)Nc1cc2c(Nc3ccc(OCc4cccc(F)c4)c(Cl)c3)ncnc2cc1C#CC1(C)CCOC1` (centres unmarked) [Compound 61, N-(4-((3-chloro-4-((3-fluorobenzyl)oxy)-phenyl)amino)-7-((3-methyltetrahydrofuran-3-yl)ethynyl)quinazolin-6-yl)acrylamide]: the IC50 on HER2 S310F is 50 to 100 nM; at EGFR wt, > 500 nM; against EGFR V3, 100 to 500 nM; against HER2 YVMA, 100 to 500 nM.

For the compound `C=CC(=O)Nc1cc2c(Nc3cccc(Cl)c3F)ncnc2cc1C#CC1(C(F)(F)F)CCN(C)C1` (centres unmarked) [Compound 62, N-(4-((3-chloro-2-fluorophenyl)amino)-7-((1-methyl-3-(trifluoromethyl)pyrrolidin-3-yl)ethynyl)quinazolin-6-yl)acrylamide], the IC50 against HER2 S310F was 100 to 500 nM; against EGFR wt, > 500 nM; on EGFR V3 it was 100 to 500 nM; against HER2 YVMA it was > 500 nM.

Turning to `C=CC(=O)Nc1cc2c(Nc3ccc(Cl)c(Cl)c3F)ncnc2cc1C#CC1(C)CCOC1` (centres unmarked) [Compound 63, N-(4-((3,4-dichloro-2-fluorophenyl)amino)-7-((3-methyltetrahydrofuran-3-yl)ethynyl)quinazolin-6-yl)acrylamide], the IC50 was 100 to 500 nM against HER2 S310F, 100 to 500 nM against EGFR wt, ≤ 50 nM on EGFR V3 and > 500 nM at HER2 YVMA.

On to `C=CC(=O)Nc1cc2c(Nc3cccc(Cl)c3F)ncnc2cc1C#CC12CC1CN(C1COC1)C2` (centres unmarked) [Compound 64, N-(4-((3-chloro-2-fluorophenyl)amino)-7-((3-(oxetan-3-yl)-3-azabicyclo[3.1.0]hexan-1-yl)ethynyl)quinazolin-6-yl)acrylamide], for which the IC50 against HER2 S310F was 100 to 500 nM; against EGFR wt it was 100 to 500 nM; against EGFR V3, ≤ 50 nM; against HER2 YVMA, 100 to 500 nM.

Consider `C=CC(=O)Nc1cc2c(Nc3cccc(Cl)c3F)ncnc2cc1C#CC12CC1CN(C)C2` (centres unmarked) [Compound 65, N-(4-((3-chloro-2-fluorophenyl)amino)-7-((3-methyl-3-azabicyclo[3.1.0]hexan-1-yl)ethynyl)quinazolin-6-yl)acrylamide], for which the IC50 on HER2 S310F is 50 to 100 nM; against EGFR wt, 100 to 500 nM; against EGFR V3, ≤ 50 nM; against HER2 YVMA, 100 to 500 nM.

For the compound `C=CC(=O)Nc1cc2c(Nc3cccc(Cl)c3F)ncnc2cc1C#CC1(C)CCCN(C)C1` (centres unmarked) [Compound 66, N-(4-((3-chloro-2-fluorophenyl)amino)-7-((1,3-dimethylpiperidin-3-yl)ethynyl)quinazolin-6-yl)acrylamide], the IC50 against HER2 S310F was 100 to 500 nM; against EGFR wt it was > 500 nM; against EGFR V3, ≤ 50 nM; at HER2 YVMA, > 500 nM.

As for `C=CC(=O)Nc1cc2c(Nc3ccc(OCc4ccccn4)c(Cl)c3)ncnc2cc1C#CC1(C)CCCN(C)C1` (centres unmarked) [Compound 67, N-(4-((3-chloro-4-(pyridin-2-ylmethoxy)phenyl)amino)-7-((1,3-dimethylpiperidin-3-yl)ethynyl)quinazolin-6-yl)acrylamide], the IC50 is ≤ 50 nM at HER2 S310F, > 500 nM on EGFR wt, 50 to 100 nM at EGFR V3 and 100 to 500 nM against HER2 YVMA.

For `C=CC(=O)Nc1cc2c(Nc3cccc(Cl)c3F)ncnc2cc1C#CC1(C)CCN(CC(F)(F)F)C1` (centres unmarked) [Compound 68, N-(4-((3-chloro-2-fluorophenyl)amino)-7-((3-methyl-1-(2,2,2-trifluoroethyl)-pyrrolidin-3-yl)ethynyl)quinazolin-6-yl)acrylamide], the IC50 against HER2 S310F is > 500 nM; against EGFR wt, > 500 nM; at EGFR V3, 100 to 500 nM; at HER2 YVMA it was > 500 nM.

On to `C=CC(=O)Nc1cc2c(Nc3cccc(Cl)c3F)ncnc2cc1C#CC1(C)CCN(C2COC2)C1` (centres unmarked) [Compound 69, N-(4-((3-chloro-2-fluorophenyl)amino)-7-((3-methyl-1-(oxetan-3-yl)pyrrolidin-3-yl)ethynyl)quinazolin-6-yl)acrylamide], for which the IC50 against HER2 S310F is 100 to 500 nM; against EGFR wt, 100 to 500 nM; against EGFR V3 it was ≤ 50 nM; on HER2 YVMA, > 500 nM.

In the case of `CC#CC(=O)Nc1cc2c(Nc3ccc(OCc4ccccn4)c(Cl)c3)ncnc2cc1C#CC1(C)CCN(C)C1` (centres unmarked) [Compound 70, N-(4-((3-chloro-4-(pyridin-2-ylmethoxy)phenyl)amino)-7-((1,3-dimethylpyrrolidin-3-yl)ethynyl)quinazolin-6-yl)but-2-ynamide], the IC50 against HER2 S310F is ≤ 50 nM; against EGFR wt it was 50 to 100 nM; against EGFR V3, ≤ 50 nM; against HER2 YVMA, ≤ 50 nM.

As to `C=CC(=O)Nc1cc2c(Nc3ccc(OCc4ccccn4)c(Cl)c3)ncnc2cc1C#CC12CCC(CC1)N2C` [Compound 71, N-(4-((3-chloro-4-(pyridin-2-ylmethoxy)phenyl)amino)-7-((7-methyl-7-azabicyclo[2.2.1]heptan-1-yl)ethynyl)quinazolin-6-yl)acrylamide], the IC50 was ≤ 50 nM against HER2 S310F, > 500 nM on EGFR wt, ≤ 50 nM against EGFR V3 and 100 to 500 nM against HER2 YVMA.

As for `C=CC(=O)Nc1cc2c(Nc3ccc(OCc4ccccn4)c(Cl)c3)ncnc2cc1C#CC1(C)CCN(C)CC1` [Compound 72, N-(4-((3-chloro-4-(pyridin-2-ylmethoxy)phenyl)amino)-7-((1,4-dimethylpiperidin-4-yl)ethynyl)quinazolin-6-yl)acrylamide], the IC50 against HER2 S310F was ≤ 50 nM; at EGFR wt, > 500 nM; against EGFR V3, ≤ 50 nM; at HER2 YVMA, 50 to 100 nM.

Consider `C=CC(=O)Nc1cc2c(Nc3ccc(O)c(Cl)c3)ncnc2cc1C#C[C@@H]1[C@H]2CN(C)C[C@@H]12` [Compound 73, N-(4-((3-chloro-4-hydroxyphenyl)amino)-7-(((1R,5S,6s)-3-methyl-3-azabicyclo[3.1.0]hexan-6-yl)ethynyl)quinazolin-6-yl)acrylamide], for which the IC50 is ≤ 50 nM on HER2 S310F, 50 to 100 nM against EGFR wt, ≤ 50 nM at EGFR V3 and 100 to 500 nM on HER2 YVMA.

On to `CC#CC(=O)Nc1cc2c(Nc3cccc(Cl)c3F)ncnc2cc1C#C[C@@H]1[C@H]2CN(C)C[C@@H]12` [Compound 74, N-(4-((3-chloro-2-fluorophenyl)amino)-7-(((1R,5S,6s)-3-methyl-3-azabicyclo[3.1.0]hexan-6-yl)ethynyl)quinazolin-6-yl)but-2-ynamide], for which the IC50 against HER2 S310F is 50 to 100 nM; at EGFR wt, 100 to 500 nM; at EGFR V3, ≤ 50 nM; against HER2 YVMA it was > 500 nM.

With `C=CC(=O)Nc1cc2c(Nc3cc(Cl)ccc3F)ncnc2cc1C#C[C@@H]1[C@H]2CN(C)C[C@@H]12` [Compound 75, N-(4-((5-chloro-2-fluorophenyl)amino)-7-(((1R,5S,6s)-3-methyl-3-azabicyclo[3.1.0]hexan-6-yl)ethynyl)quinazolin-6-yl)acrylamide], the IC50 on HER2 S310F was 100 to 500 nM; at EGFR wt, 100 to 500 nM; against EGFR V3 it was ≤ 50 nM; at HER2 YVMA it was > 500 nM.

As to `C=CC(=O)Nc1cc2c(Nc3ccc(OCc4cccc(F)c4)c(Cl)c3)ncnc2cc1C#C[C@@H]1[C@H]2CN(C)C[C@@H]12` [Compound 76, N-(4-((3-chloro-4-((3-fluorobenzyl)oxy)-phenyl)amino)-7-(((1R,5S,6s)-3-methyl-3-azabicyclo[3.1.0]hexan-6-yl)ethynyl)quinazolin-6-yl)acrylamide], the IC50 against HER2 S310F is 50 to 100 nM; against EGFR wt, > 500 nM; against EGFR V3, 100 to 500 nM; against HER2 YVMA it was 100 to 500 nM.

Turning to `C=CC(=O)Nc1cc2c(Nc3cccc(Cl)c3F)ncnc2cc1C#CC1CCN(C)C1` (centres unmarked) [Compound 77, N-(4-((3-chloro-2-fluorophenyl)amino)-7-((1-methylpyrrolidin-3-yl)ethynyl)quinazolin-6-yl)acrylamide], the IC50 was ≤ 50 nM on HER2 S310F, ≤ 50 nM against EGFR wt, ≤ 50 nM against EGFR V3 and 100 to 500 nM against HER2 YVMA.

In the case of `C=CC(=O)Nc1cc2c(Nc3cccc(Cl)c3F)ncnc2cc1C#C[C@@H]1[C@H]2CN(C)C[C@@H]12` [Compound 78, N-(4-((3-chloro-2-fluorophenyl)amino)-7-(((1R,5S,6s)-3-methyl-3-azabicyclo[3.1.0]hexan-6-yl)ethynyl)quinazolin-6-yl)acrylamide], the IC50 is ≤ 50 nM against HER2 S310F, ≤ 50 nM against EGFR wt, ≤ 50 nM on EGFR V3 and 100 to 500 nM on HER2 YVMA.
